From patent US10399945B2, “Tetrahydronaphthyl urea derivative” (MOCHIDA PHARMACEUTICAL CO., LTD., priority 2017, dated 2019)

Target: Human TrkA Protein (Homo sapiens (Human), UniProt P04629)
Assay: Evaluation of Binding Activity for Human TrkA Protein (TrkA LanthaScreen Eu Kinase Binding Assay)
Conditions: TrkA enzyme, Kinase Tracer 236, TR-FRET, 60 minutes at room temperature
Experimental: (Pharmacological Experimental Example 1): Evaluation of Binding Activity for Human TrkA Protein
Measurement was carried out using TrkA LanthaScreen (registered trademark) Eu Kinase Binding Assay (ThermoFisher SCIENTIFIC). To a 384 well plate (Corning), 2.5 μL of the test compound having various concentrations and diluted with Kinase buffer (ThermoFisher SCIENTIFIC) and 2.5 μL of 15 nM TrkA enzyme (ThermoFisher SCIENTIFIC) were added. Moreover, […] Eu-anti-His Tag antibody (ThermoFisher SCIENTIFIC) and 5 μL of 30 nM Kinase (registered trademark) Tracer 236 (ThermoFisher SCIENTIFIC) were added, followed by reaction at room temperature for 60 minutes. After the reaction, the fluorescence intensity of Europium (Emission wavelength 615 nm) and TR-FRET (Emission wavelength 665 nm) with an excitation wavelength of 340 nm were measured with EnVision 2100 (PerkinElmer) to calculate the fluorescence ratio as the amount of the test compound and the TrkA enzyme bonded. The inhibitory activity (IC50 value) of each test compound was calculated with the fluorescence ratio of the well to which a solvent was added instead of the test compound being 0% and the fluorescence ratio of the well without addition of the TrkA protein being 100%.
In Table 1, […] mean Compounds 1 to 62 synthesized in accordance with Examples 1 to 62 described later.

Chain of Human TrkA Protein (P04629 33-796): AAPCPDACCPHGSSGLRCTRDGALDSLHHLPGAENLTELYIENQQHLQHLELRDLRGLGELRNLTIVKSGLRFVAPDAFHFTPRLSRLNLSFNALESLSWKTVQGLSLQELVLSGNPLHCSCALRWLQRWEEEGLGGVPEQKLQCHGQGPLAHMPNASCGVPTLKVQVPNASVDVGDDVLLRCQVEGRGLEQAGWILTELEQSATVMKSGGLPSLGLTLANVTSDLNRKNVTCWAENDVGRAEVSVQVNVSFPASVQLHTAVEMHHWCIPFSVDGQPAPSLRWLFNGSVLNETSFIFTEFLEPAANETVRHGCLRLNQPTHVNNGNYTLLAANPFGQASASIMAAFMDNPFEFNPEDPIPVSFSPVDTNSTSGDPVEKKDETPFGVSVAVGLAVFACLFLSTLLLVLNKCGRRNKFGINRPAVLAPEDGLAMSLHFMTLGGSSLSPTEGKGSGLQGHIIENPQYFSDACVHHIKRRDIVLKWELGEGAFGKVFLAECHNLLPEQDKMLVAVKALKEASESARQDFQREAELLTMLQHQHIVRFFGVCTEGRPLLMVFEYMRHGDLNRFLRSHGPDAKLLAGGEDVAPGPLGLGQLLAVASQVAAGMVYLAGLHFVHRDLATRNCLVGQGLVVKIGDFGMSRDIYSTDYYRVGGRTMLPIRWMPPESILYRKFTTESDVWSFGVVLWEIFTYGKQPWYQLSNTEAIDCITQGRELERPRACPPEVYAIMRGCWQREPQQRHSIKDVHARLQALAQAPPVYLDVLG

SMILES	IC50
Cc1cc(NC(=O)N[C@@H]2c3ccccc3C(C)(C)C[C@H]2O)c(-c2ccccc2)nc1-c1cncc(C(F)(F)F)c1 [Compound 11, 1-((1R,2R)-2-hydroxy-4,4-dimethyl-1,2,3,4-tetrahydronaphthalen-1-yl)-3-(3-methyl-6-phenyl-5′-(trifluoromethyl)-[2,3′-bipyridin]-5-yl)urea]	≤ 0.05 µM
Cc1cc(NC(=O)N[C@@H]2c3ccccc3C(C)(C)C[C@H]2O)c(-c2ccccc2)nc1CO [Compound 8, 1-((1R,2R)-2-hydroxy-4,4-dimethyl-1,2,3,4-tetrahydronaphthalen-1-yl)-3-(6-(hydroxymethyl)-5-methyl-2-phenylpyridin-3-yl)urea]	≤ 0.05 µM
Cc1cnc(-c2ccccc2)c(NC(=O)N[C@@H]2c3ccccc3C(C)(C)C[C@H]2O)c1 [Compound 7, 1-((1R,2R)-2-hydroxy-4,4-dimethyl-1,2,3,4-tetrahydronaphthalen-1-yl)-3-(5-methyl-2-phenylpyridin-3-yl)urea]	≤ 0.05 µM
Cc1cc(NC(=O)N[C@@H]2c3ccccc3C(C)(C)C[C@H]2O)c(-c2ccccc2)nc1-c1cnn(C)c1 [Compound 10, 1-((1R,2R)-2-hydroxy-4,4-dimethyl-1,2,3,4-tetrahydronaphthalen-1-yl)-3-(5-methyl-6-(1-methyl-1H-pyrazol-4-yl)-2-phenylpyridin-3-yl)urea]	≤ 0.05 µM
Cc1nnc(CNC(=O)c2nc(-c3ccccc3)c(NC(=O)N[C@@H]3c4cc(F)c(F)cc4C(C)(C)C[C@H]3O)cc2C)o1 (racemic) [Compound 41, rac-5-(3-((1R,2R)-6,7-difluoro-2-hydroxy-4,4-dimethyl-1,2,3,4-tetrahydronaphthalen-1-yl)ureido)-3-methyl-N-((5-methyl-1,3,4-oxadiazol-2-yl)methyl)-6-phenylpicolinamide]	≤ 0.05 µM
CC1(C)C[C@@H](O)[C@H](NC(=O)Nc2cccnc2-c2ccccc2)c2ccccc21 (racemic) [Compound 1, rac-1-((1R,2R)-2-hydroxy-4,4-dimethyl-1,2,3,4-tetrahydronaphthalen-1-yl)-3-(2-phenylpyridin-3-yl)urea]	≤ 0.05 µM
Cc1ccc(-c2nc(-c3ccccc3)c(NC(=O)N[C@@H]3c4ccccc4C(C)(C)C[C@H]3O)cc2C)cn1 [Compound 12, 1-(3,6′-dimethyl-6-phenyl-[2,3′-bipyridin]-5-yl)-3-((1R,2R)-2-hydroxy-4,4-dimethyl-1,2,3,4-tetrahydronaphthalen-1-yl)urea]	≤ 0.05 µM
Cc1ncc(-c2nc(C3CCOCC3)c(NC(=O)N[C@@H]3c4ccccc4C(C)(C)C[C@H]3O)cc2C)cn1 (racemic) [Compound 28, rac-1-((1R,2R)-2-hydroxy-4,4-dimethyl-1,2,3,4-tetrahydronaphthalen-1-yl)-3-(5-methyl-6-(2-methylpyrimidin-5-yl)-2-(tetrahydro-2H-pyran-4-yl)pyridin-3-yl)urea]	≤ 0.05 µM
COCc1ccc2c(c1)[C@@H](NC(=O)Nc1cc(C)cnc1C1CCOCC1)[C@H](O)CC2(C)C (racemic) [Compound 33, rac-1-((1R,2R)-2-hydroxy-7-(methoxymethyl)-4,4-dimethyl-1,2,3,4-tetrahydronaphthalen-1-yl)-3-(5-methyl-2-(tetrahydro-2H-pyran-4-yl)pyridin-3-yl)urea]	≤ 0.05 µM
CC1(C)C[C@@H](O)[C@H](NC(=O)Nc2cccnc2-c2ccccc2)c2cc(F)c(F)cc21 (racemic) [Compound 36, rac-1-((1R,2R)-6,7-difluoro-2-hydroxy-4,4-dimethyl-1,2,3,4-tetrahydronaphthalen-1-yl)-3-(2-phenylpyridin-3-yl)urea]	≤ 0.05 µM
Cc1cnc(-c2ccccc2)c(NC(=O)N[C@@H]2c3cc(F)c(F)cc3C(C)(C)C[C@H]2O)c1 (racemic) [Compound 37, rac-1-((1R,2R)-6,7-difluoro-2-hydroxy-4,4-dimethyl-1,2,3,4-tetrahydronaphthalen-1-yl)-3-(5-methyl-2-phenylpyridin-3-yl)urea]	≤ 0.05 µM
Cc1cc(NC(=O)N[C@@H]2c3ccccc3C(C)(C)C[C@H]2O)c(-c2ccccc2)nc1-c1cnc(C(F)(F)F)nc1 [Compound 15, 1-((1R,2R)-2-hydroxy-4,4-dimethyl-1,2,3,4-tetrahydronaphthalen-1-yl)-3-(5-methyl-2-phenyl-6-(2-(trifluoromethyl)pyrimidin-5-yl)pyridin-3-yl)urea]	≤ 0.05 µM
Cc1ncc(-c2nc(-c3ccccc3)c(NC(=O)N[C@@H]3c4ccc(F)cc4C(C)(C)C[C@H]3O)cc2C)cn1 (racemic) [Compound 35a]	≤ 0.05 µM
Cc1cc(NC(=O)N[C@@H]2c3ccccc3C(C)(C)C[C@H]2O)c(C2CCOCC2)nc1-c1cn[nH]c1 (racemic) [Compound 30, rac-1-((1R,2R)-2-hydroxy-4,4-dimethyl-1,2,3,4-tetrahydronaphthalen-1-yl)-3-(5-methyl-6-(1H-pyrazol-4-yl)-2-(tetrahydro-2H-pyran-4-yl)pyridin-3-yl)urea]	≤ 0.05 µM
Cc1cc(NC(=O)N[C@@H]2c3ccccc3C(C)(C)C[C@H]2O)c(C2CCOCC2)nc1C(N)=O (racemic) [Compound 27, rac-5-(3-((1R,2R)-2-hydroxy-4,4-dimethyl-1,2,3,4-tetrahydronaphthalen-1-yl)ureido)-3-methyl-6-(tetrahydro-2H-pyran-4-yl)picolinamide]	0.05 to 1 µM
Cc1ncc(-c2nc(-c3ccccc3)c(NC(=O)N[C@@H]3c4ccccc4C(C)(C)C[C@H]3O)cc2C)cn1 [Compound 9, 1-((1R,2R)-2-hydroxy-4,4-dimethyl-1,2,3,4-tetrahydronaphthalen-1-yl)-3-(5-methyl-6-(2-methylpyrimidin-5-yl)-2-phenylpyridin-3-yl)urea]	≤ 0.05 µM
Cc1nnc(CNC(=O)c2nc(-c3ccccc3)c(NC(=O)N[C@@H]3c4cc(F)c(F)cc4C(C)(C)C[C@H]3O)cc2C)o1 (racemic) [Compound 41a]	≤ 0.05 µM

Second part, the molecule after the results:

IC50	SMILES
≤ 0.05 µM	Cc1cc(NC(=O)N[C@@H]2c3cc(F)c(F)cc3C(C)(C)C[C@H]2O)c(-c2ccccc2)nc1-c1ccn(C)n1 (racemic) [Compound 48a]
≤ 0.05 µM	Cc1cc(NC(=O)N[C@@H]2c3cc(F)c(F)cc3C(C)(C)C[C@H]2O)c(-c2ccccc2)nc1-c1cccc(CO)c1 (racemic) [Compound 46, rac-1-((1R,2R)-6,7-difluoro-2-hydroxy-4,4-dimethyl-1,2,3,4-tetrahydronaphthalen-1-yl)-3-(6-(3-(hydroxymethyl)phenyl)-5-methyl-2-phenylpyridin-3-yl)urea]
≤ 0.05 µM	Cc1cc(NC(=O)N[C@@H]2c3cc(F)c(F)cc3C(C)(C)C[C@H]2O)c(-c2ccccc2)nc1-c1cccc(C#N)c1 (racemic) [Compound 47, rac-1-(6-(3-cyanophenyl)-5-methyl-2-phenylpyridin-3-yl)-3-((1R,2R)-6,7-difluoro-2-hydroxy-4,4-dimethyl-1,2,3,4-tetrahydronaphthalen-1-yl)urea]
0.05 to 1 µM	Cc1cc(NC(=O)N[C@@H]2c3cc(F)c(F)cc3C(C)(C)C[C@H]2O)c(C2CCOCC2)nc1-c1cn[nH]c1 (racemic) [Compound 61a]
≤ 0.05 µM	Cc1cc(NC(=O)N[C@@H]2c3cc(F)c(F)cc3C(C)(C)C[C@H]2O)c(-c2ccccc2)nc1-c1cn[nH]c1 (racemic) [Compound 53, rac-1-((1R,2R)-6,7-difluoro-2-hydroxy-4,4-dimethyl-1,2,3,4-tetrahydronaphthalen-1-yl)-3-(5-methyl-2-phenyl-6-(1H-pyrazol-4-yl)pyridin-3-yl)urea]
≤ 0.05 µM	Cc1ncc(-c2nc(-c3ccccc3)c(NC(=O)N[C@@H]3c4cc(F)c(F)cc4C(C)(C)C[C@H]3O)cc2C)cn1 (racemic) [Compound 44, rac-1-((1R,2R)-6,7-difluoro-2-hydroxy-4,4-dimethyl-1,2,3,4-tetrahydronaphthalen-1-yl)-3-(5-methyl-6-(2-methylpyrimidin-5-yl)-2-phenylpyridin-3-yl)urea]
0.05 to 1 µM	Cc1cc(NC(=O)N[C@@H]2c3cc(F)c(F)cc3C(C)(C)C[C@H]2O)c(C2CCOCC2)nc1-c1cn[nH]c1 (racemic) [Compound 61, rac-1-((1R,2R)-6,7-difluoro-2-hydroxy-4,4-dimethyl-1,2,3,4-tetrahydronaphthalen-1-yl)-3-(5-methyl-6-(1H-pyrazol-4-yl)-2-(tetrahydro-2H-pyran-4-yl)pyridin-3-yl)urea]
≤ 0.05 µM	Cc1cc(NC(=O)N[C@@H]2c3cc(F)c(F)cc3C(C)(C)C[C@H]2O)c(-c2ccccc2)nc1-c1ccc(CO)nc1 (racemic) [Compound 55, rac-1-((1R,2R)-6,7-difluoro-2-hydroxy-4,4-dimethyl-1,2,3,4-tetrahydronaphthalen-1-yl)-3-(6′-(hydroxymethyl)-3-methyl-6-phenyl-[2,3′-bipyridin]-5-yl)urea]
≤ 0.05 µM	Cc1cc(NC(=O)N[C@@H]2c3cc(F)c(F)cc3C(C)(C)C[C@H]2O)c(-c2ccccc2)nc1-c1cnc(C(C)(C)O)nc1 (racemic) [Compound 54, rac-1-((1R,2R)-6,7-difluoro-2-hydroxy-4,4-dimethyl-1,2,3,4-tetrahydronaphthalen-1-yl)-3-(6-(2-(2-hydroxypropan-2-yl)pyrimidin-5-yl)-5-methyl-2-phenylpyridin-3-yl)urea]
